Data from PMC11855827, “High-Throughput Screening of Five Compound Libraries for Anthelmintic Activity and Toxicity Leads to the Discovery of Two Flavonoid Compounds” (International Journal of Molecular Sciences, 2025).
Like-named read-outs stand apart in the source and are kept apart here.

Tested on: C. elegans
Experiment: microbe, parasite or virus in culture
Conditions: Caenorhabditis elegans
[1] = 0 h, read-out: Percentage of motility inhibition 0 h, Table S2, C. elegans SS assay, 110 μM, 0 h, averages of 4 data points
[2] = 24 h, read-out: Percentage of motility inhibition 24 h, Table S2, C. elegans SS assay, 110 μM, 24 h, averages of 4 data points
[3] = 0 h, read-out: Percentage of motility inhibition 0 h
[4] = 24 h, read-out: Percentage of motility inhibition 24 h

Structure (SMILES) | inhibition at 110 µM [1] [%] | inhibition at 110 µM [2] [%] | inhibition at 110 µM [3] [%] | inhibition at 110 µM [4] [%]
COc1c(O)cc2c(c1O)[C@@H]1O[C@H](CO)[C@@H](O)[C@H](O)[C@H]1OC2=O [Bergenin] | 21 | 10 | – | –
C=C1CCC[C@]2(C)CC[C@@H](C(C)(C)O)C[C@@H]12 [Beta-Eudesmol] | 0 | 6 | – | –
C=C(C)[C@@H]1CC[C@]2(COC(C)=O)CC[C@]3(C)[C@H](CC[C@@H]4[C@@]5(C)CC[C@H](OC(C)=O)C(C)(C)[C@@H]5CC[C@]43C)[C@@H]12 [Betulin diacetate] | 11 | 0 | – | –
C=C(C)[C@@H]1CC[C@]2(CO)CC[C@]3(C)[C@H](CC[C@@H]4[C@@]5(C)CC[C@H](O)C(C)(C)[C@@H]5CC[C@]43C)[C@@H]12 [Betulin] | 0 | 0 | – | –
C=C(C)[C@@H]1CC[C@]2(C(=O)O)CC[C@]3(C)[C@H](CC[C@@H]4[C@@]5(C)CC[C@H](OC(=O)CC(C)(C)C(=O)O)C(C)(C)[C@@H]5CC[C@]43C)[C@@H]12 [Bevirimat] | 3 | 30 | – | –
C[C@@H](O)[C@H]1C(=O)N2C(C(=O)[O-])=C(SC3Cn4cnc[n+]4C3)[C@H](C)[C@H]12 (stereo partly shown) [Biapenem] | 18 | 3 | – | –
CN1CCc2cc3c(cc2[C@H]1[C@@H]1OC(=O)c2c1ccc1c2OCO1)OCO3 [Bicuculline] | 0 | 8 | – | –
COC(=O)c1cc(OC)c2c(c1-c1c(CO)cc(OC)c3c1OCO3)OCO2 [Bicyclol] | 23 | 4 | – | –
c1ccc(-c2ccc(C(c3ccccc3)n3ccnc3)cc2)cc1 (stereo not shown) [Bifonazole] | 25 | 31 | – | –
CC(C)(C)[C@]1(O)CC2OC(=O)CC23C(=O)OC2OC(=O)[C@H](O)C231 (stereo partly shown) [Bilobalide] | 0 | 23 | – | –
O=C(O)CCCC[C@@H]1SC[C@@H]2NC(=O)N[C@@H]21 [Biotin] | – | – | 14 | 12
CC(C)=C/C=C1\O[C@@H]2CC(C)=CC(=O)[C@@H]2[C@]1(C)O [Bisabolangelone] | 18 | 13 | – | –
Oc1c(Cl)cc(Cl)cc1Sc1cc(Cl)cc(Cl)c1O [Bithionol] | 40 | 40 | – | –
CC(C)(C)NC(=O)N[C@H](C(=O)N1C[C@H]2[C@@H]([C@H]1C(=O)NC(CC1CCC1)C(=O)C(N)=O)C2(C)C)C(C)(C)C (stereo partly shown) [Boceprevir] | 28 | 39 | – | –
COc1cc2c(cc1O)C[C@H]1c3c(cc(O)c(OC)c3-2)CCN1C [Boldine] | 0 | 0 | – | –
O=C1N[C@@H](Cc2c[nH]c3ccccc23)C(=O)N2CCC[C@@H]12 [Brevianamide F] | – | – | 31 | 18
C/C=C(/C)C(=O)O[C@H]1[C@@H]2[C@H](C)C(=O)O[C@@H]2C[C@@H](C)[C@@H]2C=CC(=O)[C@]21C [Brevilin A] | – | – | 0 | 0
O=c1[nH]c(=O)n([C@H]2C[C@H](O)[C@@H](CO)O2)cc1/C=C/Br [Brivudine] | – | – | 6 | 14
O=[N+]([O-])C(Br)(CO)CO [Bronopol] | 19 | 24 | – | –
Cc1ccc2c(Br)cc(Br)c(OC(=O)c3ccccc3)c2n1 [Broxaldine] | 26 | 0 | – | –
Oc1c(Br)cc(Br)c2cccnc12 [Broxyquinoline] | 0 | 8 | – | –
COC(=O)[C@@]12OC[C@]34[C@H]([C@@H](O)[C@@H]1O)[C@@]1(C)CC(=O)C(O)=C(C)[C@@H]1C[C@H]3OC(=O)[C@H](OC(=O)/C=C(\C)C(C)C)[C@@H]24 [Bruceantin] | 24 | 69 | – | –
COC(=O)[C@@]12OC[C@]34[C@H]([C@@H](O)[C@@H]1O)[C@@]1(C)CC(=O)C(O)=C(C)[C@@H]1C[C@H]3OC(=O)[C@H](OC(=O)CC(C)C)[C@@H]24 [Bruceine A] | – | – | 24 | 49
